In patent US10080728B2, “Hemostatic agent” (priority 2015, dated 2018):

How the values were obtained:
eyeball pain = test: Eyeball pain in posttraumatic processes, VAS (Example 2.16); type: in vivo, human; conditions: eyeball lesions, instilled into the conjunctival sac
Source text: Evaluation of efficiency of the claimed substance for eyeball pain reduction in posttraumatic processes. The claimed substance solution was instilled into the conjunctival sac of patients with various lesions of the eyeball, including after surgery. As a reference, diclofenac eye drops were used. For efficiency evaluation the change in the pain sensation intensity on the visual analog scale (VAS) from 0 to 10 points was used.

[1] = tested on: corneal sensitivity of the rabbit's eye; test: Topical (corneal) anesthetic activity in rabbit's eye (Example 2.1); type: in vivo, rabbits; conditions: 0.5% aqueous solution into the conjunctival sac of the rabbit's eye
Description: A study to determine anesthetic activity was carried out in unanesthetized rabbits, which were placed in a special box with a hole to restrain the animal's head. The study was conducted to determine the threshold of sensitivity of the rabbit's eye to a tactile impact. For this purpose, a thin metal wire was used without injuring the cornea. The examined compound and the reference drug (oxybuprocaine) were administered into the conjunctival sac of the rabbit's eye in the form of a 0.5% aqueous solution with the total volume of up to 0.4 ml. Determination of topical anaesthesia was performed starting from the 1st minute of the study. The absence of the blinking reflex for 1 min (100 touches) was considered as an indicator of full anesthesia. Based on the collected data reflecting the changes in corneal sensitivity under the influence of the drugs, the beginning, the duration of complete (100%) anesthesia and the total duration of anesthesia were determined.
The relative activity of the tested compounds was calculated according to the Valet equation. The Rainier index is 852.4 for the claimed preparation and 63.5 for the reference preparation. The duration of anesthesia was 234 minutes for the claimed preparation and 24 min for oxibuprocaine.

postoperative pain = test: Postoperative pain syndrome after laparoscopic cholecystectomy, VAS (Example 2.8); type: in vivo, human
Description: Evaluation of efficiency of the claimed substance for pain reduction was studied in patients suffering the postoperative pain syndrome. After laparoscopic cholecystectomy the claimed substance was applied onto the affected areas of the patients in the form of a solution/spray in a concentration of 0.01% to 10%. As a comparison preparation for surface anesthesia oxybuprocaine was used. To evaluate efficiency the change in the pain sensation intensity on the visual analog scale (VAS) in 1 minute after application/administration of the preparation and after 2 days in case of everyday application was used.

[2] = tested on: bleeding from liver wounds; test: Hemostatic activity together with aluminum sulfate gel or silver nitrate solution (Example 1.6); type: in vivo, rabbits
Description: The influence of the claimed substance on the hemostatic function was examined in rabbits of both sexes weighing 2000-4000 g. The experiments were carried out under general anesthesia. The animals underwent a laparotomy with a section made along the white line of the abdomen. The intestine was exteriorized into the wound and limited by wipes moistened with 0.9% sodium chloride solution (temperature […]), as well as the front surface of the liver. A superficial wound of the liver by the area of 1.5 cm^2 and the depth of 0.1 cm was inflicted by means of a razor. […] An animal model was used in the experiment, as described in Example No. 4. Hemostatic activity was evaluated by the change of the bleeding intensity.

[3] = tested on: capillary-parenchymal bleeding from liver wounds; test: Hemostatic activity of solution or spray on superficial liver wound (Example 1.1); type: in vivo, rabbits
Description: The influence of the claimed substance on the hemostatic function was examined in rabbits of both sexes weighing 2000-4000 g. The experiments were carried out under general anesthesia. The animals underwent a laparotomy with a section made along the white line of the abdomen. The intestine was exteriorized into the wound and limited by wipes moistened with 0.9% sodium chloride solution (temperature […]), as well as the front surface of the liver. A superficial wound of the liver by the area of 1.5 cm^2 and the depth of 0.1 cm was inflicted by means of a razor.
Arrest of the capillary-parenchymal bleeding was carried out by uniform application of a 1% solution or a spray of the claimed substance on the entire area of the wound surface. At that, iron subsulfat was used for comparison of the bleeding arrest time. Hemostatic activity was evaluated by the change of the bleeding intensity.

pain with soft corn = test: Anesthetic activity, pain with soft corn, VAS (second Example 1.8); type: in vivo; conditions: soft corns
Description: Evaluation of the claimed substance's anesthetic activity was studied when dispersing a spray containing 0.01-10% of the preparation, or when applied at a concentration of 0.01% to 10% onto a bandaging material or a plaster for application onto the wound surface. An iron subsulfate solution was used as a reference. For efficiency evaluation the change in the pain sensation intensity on the visual analog scale (VAS) from 0 to 10 points in 1 minute after application of the product and after 2 days in everyday use was used.

[4] = tested on: itch at genital candidiasis; test: Itch reduction at genital candidiasis, ISS (Example 2.3); type: in vivo; conditions: rounded to the higher value
Description: Evaluation of the claimed substance's anesthetic activity to reduce itch at genital candidiasis was studied when applied onto mucosae in the form of a 0.01% to 10% solution or by administering vaginal suppositories containing the claimed substance. To evaluate the efficiency the change in the itch sensation intensity on the Itch Severity Score (ISS) in 1 minute after application/administration of the product and after 5 days in case of everyday administration was used.

[5] = tested on: chest pain and bloody sputum; test: Inhalation in chronic obstructive pulmonary disease: chest pain VAS and blood in sputum (Example 2.13); type: in vivo, human; conditions: for Pain sensation intensity on a visual analog scale: chronic obstructive pulmonary disease, inhalation by nebulizer
[6] = tested on: bleeding and pain after medical interventions; test: Bleeding and pain in ENT, upper respiratory and digestive systems interventions (Example 2.17); type: in vivo, human
Description: Evaluation of the claimed substance efficiency for reduction of bleeding and pain in ENT, upper respiratory and digestive systems pathologies, in the course of instrumentation studies of these systems. Patients with various medical interventions after treatment with haemostatic purpose and pain reduction were treated with the claimed preparation. An iron subsulfate solution was used as a reference. For efficiency evaluation the change in the pain sensation intensity on the visual analog scale (VAS) from 0 to 10 points was used.

[7] = Nanostructure by dynamic light scattering; type: physicochemical; conditions: preparation concentration 0.05 mg/ml
Description: (§1) The nanostructure is determined by the methods of dynamic light scattering using a Malvern Instruments Nanosizer Nano-ZS particle size analyzer and a FEI Tecnai G212Cryo12 transmission electron microscope enabling tp cool the samples at the boiling point of liquid nitrogen.

[8] = Nanostructure by electron-microscopic examination; type: physicochemical
Description: as §1

[9] = 1 minute after application of the preparation

O=C(O)Cc1ccccc1Nc1c(Cl)cccc1Cl [Diclofenac solution, Diclofenac]
Pain sensation intensity on a visual analog scale (eyeball pain; before treatment): 6.9 +/− 0.8 points
Pain sensation intensity on a visual analog scale (eyeball pain; in 1 minute): 7.1 +/− 0.5 points
Pain sensation intensity on a visual analog scale (eyeball pain; in 10 minute): 7.2 +/− 0.6 points

CCCCOc1cc(C(=O)OCCN(CC)CC)ccc1N [Oxybuprocaine, oxybuprocaine]
Rainier index (relative activity, Valet equation) [1]: 63.5
duration of anesthesia [1]: 24 min
Pain sensation intensity on a visual analog scale (postoperative pain; [9]): 2.2 +/− 0.4
Pain sensation intensity on a visual analog scale (postoperative pain; before treatment): 7.6 +/− 0.8
Pain sensation intensity on a visual analog scale (postoperative pain; in 2 days (daily administration)): 0.5 +/− 0.1

O=[N+]([O-])[O-].[Ag+] [Silver nitrate solution (1:200), Silver nitrate]
Relative intensity of bleeding ([2]; 120 seconds after application): 1035.7 ± 119.0 mg/min
Relative intensity of bleeding ([2]; before application): 1437.5 ± 141.6 mg/min

Ferric Subsulfate [iron subsulphate]
Relative intensity of bleeding from liver wounds ([3]; 180 seconds after application): 652.6 ± 108.2 mg/min
Relative intensity of bleeding from liver wounds ([3]; before application): 1326.4 ± 128.5 mg/min
Pain sensation intensity on a visual analog scale (pain with soft corn; before treatment): 4.2 +/− 0.2 points
Pain sensation intensity on a visual analog scale (pain with soft corn; in 1 minute): 4.5 +/− 0.4 points
Pain sensation intensity on a visual analog scale (pain with soft corn; in 2 days, everyday use): 3.9 +/− 0.3 points
Itch intensity on the Itch Severity Score (ISS) scale [4, 9]: 4 points
Itch intensity on the Itch Severity Score (ISS) scale ([4]; in 5 days (for daily administration)): 5 points
Pain sensation intensity on a visual analog scale ([5]; before treatment): 4.2 +/− 0.7
Pain sensation intensity on a visual analog scale ([5]; in 1 minute): 4.4 +/− 0.7
Pain sensation intensity on a visual analog scale ([5]; in 5 days): 4.2 +/− 0.7
Presence of bloody sputum ([5]; in 1 minute): +++
Pain sensation intensity on a visual analog scale ([6]; before treatment): 4.7 +/− 0.5 points
Pain sensation intensity on a visual analog scale ([6]; in 1 minute): 4.5 +/− 0.4 points
Pain sensation intensity on a visual analog scale ([6]; in 10 minute): 4.6 +/− 0.5 points

polyammonia methanediamine chloride [the claimed preparation]
Rainier index (relative activity, Valet equation) [1]: 852.4
duration of anesthesia [1]: 234 min
size of globules in solution [7]: 10-15 nm
size of globules [8]: 10-15 nm
